Results reported in the METLIN SMRT retention time set (Domingo-Almenara et al. 2019).

Assay: gradient 5% acetonitrile 3 min, to 50% in 2 min, to 85% in 15 min, held 3 min, 100 µL/min
Conditions: column: Zorbax Extend-C18 2.1 x 50 mm; eluents: water / acetonitrile, 0.1% formic acid
Summary of the method: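 Retention times come from adduct peaks that were picked computationally and then checked by hand. The standards, pure and pooled in mixtures of ~100 molecules, were run on a Zorbax Extend-C18 column (2.1 × 50 mm, 1.8 μm) at 100 μL/min with water and acetonitrile, each with 0.1% formic acid. Detection was by quadrupole time-of-flight mass spectrometry in positive and negative ionization mode, with a dead volume of 40 μL and a dwell volume of 900 μL.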

Row | RP-LC retention time [s] | SMILES
1 | 1190 | Cc1ccc(NC(=O)c2nc(C(C)C)oc2C)c(C)c1
2 | 725 | O=C(NCc1csc(C2CCN(C(=O)c3ccccc3Cl)CC2)n1)C1CCC1
3 | 939 | Cc1cc(C(=O)NC(C)C2CC3CCC2C3)c2c(C)noc2n1 (stereo not drawn)
4 | 577 | CC(=O)N1CCCC1CCc1ncc(C)n1C(C)C (stereo not drawn)
5 | 845 | COc1ccc(NC(=O)N(C)CCc2noc(COc3ccccc3F)n2)cc1
6 | 720 | O=C(CSc1nc2ncccc2[nH]1)Nc1ccc(Br)cc1F
7 | 847 | Cc1ccc(CNC(=O)c2cc3c(s2)CCN(C(=O)c2ccc(F)cc2)C3)o1
8 | 521 | O=C(CCC1NC(=O)c2ccccc2NC1=O)Nc1ncn[nH]1 (stereo not drawn)
9 | 887 | O=C(c1cccc(OC(F)(F)F)c1)N1C[C@@H]2C[C@H]1C[C@@H]2NS(=O)(=O)c1ccccc1
10 | 675 | CC1=C(c2ccccc2)S(=O)(=O)N=C1N1CCCN(C(=O)C2CCOC2)CC1 (stereo not drawn)
11 | 851 | Cc1ccc(CNC(=O)Cn2ncn3c(C)c(C(=O)NCc4ccc(C)cc4)c(C)c3c2=O)cc1
12 | 1050 | Cc1ccccc1-n1ccn(Cc2nc(-c3ccc(C(C)(C)C)cc3)no2)c(=O)c1=O
13 | 669 | COCCC(=O)N1CCCN(C2=NS(=O)(=O)C(c3ccccc3)=C2C)CC1
14 | 1070 | COC(=O)c1ccccc1Nc1c(-c2ccc(SC)cc2)nc2cnccn12
15 | 845 | Clc1ccc(-c2ccc(CNc3nn[nH]n3)o2)c(Cl)c1
16 | 846 | O=C(NC1CCCCCC1)C1CCN(C(=O)c2ncn3c2COC(c2ccc(F)cc2)C3)CC1 (stereo not drawn)
17 | 962 | COC(=O)c1ccccc1Nc1c(-c2ccccc2)nc2cnccn12
18 | 762 | Cc1ccc2c(=O)c(C(=O)N3CCC(C)CC3)cn(CC(=O)NC3CCCCC3)c2n1
19 | 790 | Cc1nnc(NC(=O)Cc2csc(Nc3ccc(OC(F)(F)F)cc3)n2)s1
20 | 825 | Cn1cc(-c2cc3n(n2)CCC(=O)N3CC(=O)NCCc2c[nH]c3ccccc23)c2ccccc21
21 | 868 | Cc1cccc(CNC(=O)C2CCCN2S(=O)(=O)c2cc3c(cc2Cl)NC(=O)CO3)c1 (stereo not drawn)
22 | 734 | O=C(NCC1CCOCC1)Nc1ccccc1C(F)(F)F

Row | RP-LC retention time [s] | SMILES
23 | 891 | Cc1sc(-c2cc(C(F)(F)F)on2)cc1S(=O)(=O)N1CCN(c2ccccn2)CC1
24 | 642 | CCOc1ccc(Nc2c(C(=O)N3CCSCC3)cnc3nc(C)ccc23)cc1
25 | 868 | O=C(C1=CN(c2cccc(Cl)c2)c2cc(F)ccc2S1(=O)=O)N1CCCC1
26 | 1080 | Cc1ccc(-c2nc(C3CC(=O)N(c4ccc(C)cc4)C3)no2)cc1 (stereo not drawn)
27 | 663 | CC(NC(=O)CC1CCCCC1)C(=O)Nc1nc2ccccc2[nH]1 (stereo not drawn)
28 | 669 | O=C(Cn1cnc2nc(N3CCCC(C(=O)NC4CC4)C3)sc2c1=O)NCc1ccc(F)cc1 (stereo not drawn)
29 | 819 | CN1c2ccc(Cl)cc2C(=O)NC12CCN(C(=O)NCCc1ccccc1)CC2
30 | 954 | O=C(CCN1C(=O)c2ccccc2C1=O)OCC(=O)c1ccc(Cl)cc1Cl
31 | 663 | CCc1ccccc1NS(=O)(=O)c1cc2n(c1)CCCNC2=O
32 | 1010 | CC(C)NC(=O)N1CC(Oc2cccc(-c3nc(-c4ccccc4)no3)c2)C1
33 | 996 | Cc1ccc(/C=C/S(=O)(=O)N2CC(c3nc(-c4cccs4)no3)C2)cc1
34 | 1230 | Cc1oc2ncnc(N3CCCC(C(=O)N4CCN(C5CCCCC5)CC4)C3)c2c1C (stereo not drawn)
35 | 829 | CCc1noc(NC(C)=O)c1-c1ccc(C)c(S(=O)(=O)Nc2ccccc2Cl)c1
36 | 663 | O=C(CN1CCCc2nc(C3CC3)ncc2C1=O)NCc1ccco1
37 | 934 | Cc1cccc(NC(=O)Cn2nc3c(Oc4cc(C)cc(C)c4)nccn3c2=O)c1
38 | 612 | CCCc1nc2cccnc2n1C1CCN(C(=O)Cc2cccs2)C1 (stereo not drawn)
39 | 843 | CCCn1nc(CNC(=O)c2ccc3c(c2)OCO3)c2ccccc21
40 | 746 | CNC(=O)c1ccc2c(c1)CCCN2C(=O)c1cccc(Cl)c1
41 | 1110 | COc1c(C(=O)Nc2ccc(N3CCOCC3)cc2)sc2ccc(Cl)cc12
42 | 650 | Cc1nc2c(c(=O)n1CC(=O)NCc1ccccc1Br)CCN(Cc1ccccc1)C2
43 | 560 | COCCCNC(=O)C1(CCO)CCN(Cc2ccccc2)C1 (stereo not drawn)
44 | 591 | COc1ccc(-n2nc3c(N4CCCC(C(=O)NCc5ccccn5)C4)nnc(C)c3c2C)cc1 (stereo not drawn)

Row | RP-LC retention time [s] | SMILES
45 | 1150 | CCc1sc(NC(=O)CCc2ccccc2)nc1-c1ccccc1
46 | 694 | Cc1ccc(CNC(=O)CCNc2c(-c3ccc(F)cc3)nc3cnccn23)o1
47 | 793 | Cc1nnc(N2C(=O)C(O)=C(C(=O)c3ccco3)C2c2ccc([N+](=O)[O-])cc2)s1 (stereo not drawn)
48 | 848 | CC(=O)N1c2ccc(S(=O)(=O)N3CCCC3)cc2CC1C(=O)NCCc1ccccc1C (stereo not drawn)
49 | 938 | CCOC(=O)c1cc(S(=O)(=O)N2CCCC2C(=O)Nc2cccc(F)c2)cn1C (stereo not drawn)
50 | 1170 | O=C(CCSc1ccc(Cl)cc1)Nc1nc(-c2ccccc2)cs1
51 | 610 | Cc1ccc(CNC(=O)Nc2cc3c(cc2N2CCCCC2)n(C)c(=O)n3C)cc1
52 | 699 | Cn1c(=O)c2ccn(CC(=O)NCCCc3ccccc3)c2n(C)c1=O
53 | 940 | Cc1nc(-c2cn(C)c3ncccc23)sc1C(=O)Nc1ccc(F)cc1F
54 | 930 | COc1ccc(-c2cc(C(=O)Nc3ccc(F)cc3)nn2C2CCS(=O)(=O)C2)cc1 (stereo not drawn)
55 | 586 | Cn1cc(CN2CCC(C(=O)NCCCN3CCCCC3)CC2)c2cc(Cl)ccc21
56 | 813 | Cc1ccc(N2CN(CC(=O)Nc3ccccc3C)S(=O)(=O)c3cccnc32)cc1
57 | 603 | COc1ccc(N2C(=O)CCS2(=O)=O)cc1S(=O)(=O)N1CCN(c2ccccn2)CC1
58 | 677 | CCc1nccn1Cc1nc(-c2ccc(Br)cc2)no1
59 | 694 | CC(C)C(=O)NCc1csc(C2CCCN(C(=O)C3CCC3)C2)n1 (stereo not drawn)
60 | 574 | Cc1nc(C)c(C(=O)N2CCC(N3C[C@H](O)C[C@H]3C(=O)NC3CCCCC3)CC2)s1
61 | 826 | CCN1CCn2cc(S(=O)(=O)N3CCN(c4ccccc4F)CC3)cc2C1=O
62 | 1080 | CC(=O)c1sc(NC(=O)c2cc(Cl)sc2Cl)nc1-c1ccccc1
63 | 623 | Cc1ccc2cccc(Oc3ncnc(N)c3[N+](=O)[O-])c2n1
64 | 639 | CC(C)CNC(=O)c1c2c(nc3ccccc13)CCCC2
65 | 1120 | Cn1nccc1-c1cccc(-c2noc(C3CCN(S(=O)(=O)c4ccc(Cl)cc4)CC3)n2)c1
66 | 1060 | O=C(Nc1nc(-c2ccccc2)c(-c2ccccc2)s1)C1=COCCO1

Row | RP-LC retention time [s] | SMILES
67 | 592 | N#Cc1cccc(S(=O)(=O)N2CCc3nc[nH]c3C2)c1
68 | 703 | COc1ccc(C(=O)NC2CCN(c3cc(-c4cccs4)[nH]n3)C2)cc1 (stereo not drawn)
69 | 772 | Cc1coc2cc3oc(=O)c(CC(=O)N[C@H](Cc4c[nH]c5ccccc45)C(=O)O)c(C)c3cc12
70 | 589 | CCCCN1CCN(C(=O)c2cn3cc(Cl)ccc3n2)CC1
71 | 662 | Cc1cccc(CC(=O)N2C[C@@H]3C[C@H](NS(C)(=O)=O)[C@H]2C3)c1
72 | 804 | Cc1ccc(S(=O)(=O)N2CC3CN(C(=O)c4ccc5c(c4)OCO5)CC(C2)O3)cc1
73 | 990 | Cc1nc(-c2ccc3c(c2)CCN3C(=O)Cc2ccc(F)cc2)cs1
74 | 766 | COc1ccc(S(=O)(=O)N2CCCC(C(=O)N3CCOCC3)C2)cc1Cl (stereo not drawn)
75 | 970 | COc1cccc(-c2noc(Cn3c(=O)n(-c4cccc(OC)c4)c(=O)c4sccc43)n2)c1
76 | 584 | CCCN1CCN(CCCNc2nc(-c3ccc(Cl)cc3)nc3ccccc23)CC1
77 | 775 | COc1cccc(CNC(=O)N2c3ccccc3CC2c2nc(C3CC3)no2)c1 (stereo not drawn)
78 | 962 | CCOc1ccc(-c2cn3ccn(-c4ccc(Cl)cc4)c(=O)c3n2)cc1
79 | 808 | COc1cc(-c2nc3ncccn3c2NCc2ccc(Cl)cc2)ccc1OC(C)C
80 | 954 | Cc1nn2c(nnc3c(=O)n(CCc4c[nH]c5ccccc45)ccc32)c1-c1ccc(F)cc1
81 | 1260 | CCc1ccc(NC(=O)c2cc(C(C)C)n3nccc3n2)cc1
82 | 851 | COc1ccc2[nH]cc(CCNC(=O)C3CCN(S(=O)(=O)c4ccc5c(ccn5C)c4)CC3)c2c1
83 | 790 | Cc1cccc(NC(=O)C2CCN(S(=O)(=O)c3cc(C(=O)N(C)C)cs3)CC2)c1C
84 | 693 | O=C(c1cnccn1)N1CC(c2nc(-c3cccs3)no2)C1
85 | 1090 | CC(CCc1ccccc1)NC(=O)Cn1cccc1-c1nc(-c2ccc3c(c2)OCO3)no1 (stereo not drawn)
86 | 1120 | COc1ccc(-c2nnc(-c3ccc(C)c(S(=O)(=O)N4CCCCC4)c3)o2)cc1
87 | 1150 | Cc1cccc(-n2c(=O)c3sccc3n(Cc3nc(-c4ccc(C)c(C)c4)no3)c2=O)c1
88 | 834 | N#Cc1c(NC(=O)c2cccnc2)sc2c1CCCCC2
